Results taken from paper PMC6591251, “Discovery of potent necroptosis inhibitors targeting RIPK1 kinase activity for the treatment of inflammatory disorder and cancer metastasis” (Cell Death & Disease, 2019).
pIC50: −log10 of the molar value.

Tests used:
Type in all cases: biochemical
TNIK = TNIK (Homo sapiens, UniProt Q9UKE5); test: Kinase activity assay at a CRO; conditions: CRO company
Protocol: (§1) Further, we evaluated the selectivity of PK68 against a panel of 369 kinases provided by Reaction Biology (at 1000 nM). […] In addition, we followed on some of the active “hits” from the kinome scan. PK68 was tested against TNIK and TRKA by a reputable CRO company. […] RIPK1 is known to mediate NF-κB activation independently of its kinase activity. […] It has been shown that homodimerization of RIPK3 or MLKL induced by the dimerizer leads to necroptosis bypassing the upstream signals[10],[37]. […] This dimerized RIPK3-induced necroptosis was blocked by RIPK3 inhibitor GSK873 but was not blocked by the RIPK1 inhibitor necrostatin-1. […] (Fig. 4e).
(§2) Supplementary Figure 20. The kinase activity assays of PK68 in TNIK and TRKA in vitro, Staurosporine as control.
(§3) (A) The IC50 values were obtained by increasing concentrations of PK68 and Staurosporine in TNIK. (B) The IC50 values were obtained by increasing concentrations of PK68 and Staurosporine in TRKA.

TRKA = TRKA (Homo sapiens, UniProt P04629); test: Kinase activity assay at a CRO; conditions: CRO company
Protocol: as §1, §2, §3

RSK4 = target: T1, RSK4 (Homo sapiens, UniProt Q9UK32); test: RBC kinase panel; conditions: ATP 10 μM, Data1, Data2
T1 construct: purchased Reaction Biology Corporation
In short: (§4)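 Duplicate determinations were made for each of 369 human kinases exposed to 1 μM compound, with reactions run at 10 μM ATP.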

PDGFRa = target: T2, PDGFRa (Homo sapiens, UniProt P16234); test: RBC kinase panel; conditions: ATP 10 μM, Data1, Data2
T2 construct: purchased Reaction Biology Corporation
In short: as §4

DYRK4 = target: T3, DYRK4 (Homo sapiens, UniProt Q9NR20); test: RBC kinase panel; conditions: ATP 10 μM, Data1, Data2
T3 construct: purchased Reaction Biology Corporation
In short: as §4

SRPK2 = target: T4, SRPK2 (Homo sapiens, UniProt P78362); test: RBC kinase panel; conditions: ATP 10 μM, Data1, Data2
T4 construct: purchased Reaction Biology Corporation
In short: as §4

NEK1 = target: T5, NEK1 (Homo sapiens, UniProt Q96PY6); test: RBC kinase panel; conditions: ATP 10 μM, Data1, Data2
T5 construct: purchased Reaction Biology Corporation
In short: as §4

MEKK6 = target: T6, MEKK6 (Homo sapiens, UniProt O95382); test: RBC kinase panel; conditions: ATP 10 μM, Data1, Data2
T6 construct: purchased Reaction Biology Corporation
In short: as §4

CDK4/cyclin D3 = target: T7, CDK4/cyclin D3 (Homo sapiens, UniProt P11802); test: RBC kinase panel; conditions: ATP 10 μM, Data1, Data2
T7 construct: purchased Reaction Biology Corporation
In short: as §4

RIPK3 = target: T8, RIPK3 (Homo sapiens, UniProt Q9Y572); test: RBC kinase panel; conditions: ATP 10 μM, Data1, Data2
T8 construct: purchased Reaction Biology Corporation
In short: as §4

CK1a1L = target: T9, CK1a1L (Homo sapiens, UniProt Q8N752); test: RBC kinase panel; conditions: ATP 10 μM, Data1, Data2
T9 construct: purchased Reaction Biology Corporation
In short: as §4

ACK1 = target: T10, ACK1 (Homo sapiens, UniProt Q07912); test: RBC kinase panel; conditions: ATP 10 μM, Data1, Data2
T10 construct: purchased Reaction Biology Corporation
In short: as §4

TYRO3/SKY = target: T11, TYRO3/SKY (Homo sapiens, UniProt Q06418); test: RBC kinase panel; conditions: ATP 10 μM, Data1, Data2
T11 construct: purchased Reaction Biology Corporation
In short: as §4

CK2a = target: T12, CK2a (Homo sapiens, UniProt P68400); test: RBC kinase panel; conditions: ATP 10 μM, Data1, Data2
T12 construct: purchased Reaction Biology Corporation
In short: as §4

JAK2 = target: T13, JAK2 (Homo sapiens, UniProt O60674); test: RBC kinase panel; conditions: ATP 10 μM, Data1, Data2
T13 construct: purchased Reaction Biology Corporation
In short: as §4

EPHA3 = target: T14, EPHA3 (Homo sapiens, UniProt P29320); test: RBC kinase panel; conditions: ATP 10 μM, Data1, Data2
T14 construct: purchased Reaction Biology Corporation
In short: as §4

FMS = target: T15, FMS (Homo sapiens, UniProt P07333); test: RBC kinase panel; conditions: ATP 10 μM, Data1, Data2
T15 construct: purchased Reaction Biology Corporation
In short: as §4

ULK3 = target: T16, ULK3 (Homo sapiens, UniProt Q6PHR2); test: RBC kinase panel; conditions: ATP 10 μM, Data1, Data2
T16 construct: purchased Reaction Biology Corporation
In short: as §4

PKN1/PRK1 = target: T17, PKN1/PRK1 (Homo sapiens, UniProt Q16512); test: RBC kinase panel; conditions: ATP 10 μM, Data1, Data2
T17 construct: purchased Reaction Biology Corporation
In short: as §4

TTBK2 = target: T18, TTBK2 (Homo sapiens, UniProt Q6IQ55); test: RBC kinase panel; conditions: ATP 10 μM, Data1, Data2
T18 construct: purchased Reaction Biology Corporation
In short: as §4

NEK9 = target: T19, NEK9 (Homo sapiens, UniProt Q8TD19); test: RBC kinase panel; conditions: ATP 10 μM, Data1, Data2
T19 construct: purchased Reaction Biology Corporation
In short: as §4

T17 sequence (Q16512 whole entry): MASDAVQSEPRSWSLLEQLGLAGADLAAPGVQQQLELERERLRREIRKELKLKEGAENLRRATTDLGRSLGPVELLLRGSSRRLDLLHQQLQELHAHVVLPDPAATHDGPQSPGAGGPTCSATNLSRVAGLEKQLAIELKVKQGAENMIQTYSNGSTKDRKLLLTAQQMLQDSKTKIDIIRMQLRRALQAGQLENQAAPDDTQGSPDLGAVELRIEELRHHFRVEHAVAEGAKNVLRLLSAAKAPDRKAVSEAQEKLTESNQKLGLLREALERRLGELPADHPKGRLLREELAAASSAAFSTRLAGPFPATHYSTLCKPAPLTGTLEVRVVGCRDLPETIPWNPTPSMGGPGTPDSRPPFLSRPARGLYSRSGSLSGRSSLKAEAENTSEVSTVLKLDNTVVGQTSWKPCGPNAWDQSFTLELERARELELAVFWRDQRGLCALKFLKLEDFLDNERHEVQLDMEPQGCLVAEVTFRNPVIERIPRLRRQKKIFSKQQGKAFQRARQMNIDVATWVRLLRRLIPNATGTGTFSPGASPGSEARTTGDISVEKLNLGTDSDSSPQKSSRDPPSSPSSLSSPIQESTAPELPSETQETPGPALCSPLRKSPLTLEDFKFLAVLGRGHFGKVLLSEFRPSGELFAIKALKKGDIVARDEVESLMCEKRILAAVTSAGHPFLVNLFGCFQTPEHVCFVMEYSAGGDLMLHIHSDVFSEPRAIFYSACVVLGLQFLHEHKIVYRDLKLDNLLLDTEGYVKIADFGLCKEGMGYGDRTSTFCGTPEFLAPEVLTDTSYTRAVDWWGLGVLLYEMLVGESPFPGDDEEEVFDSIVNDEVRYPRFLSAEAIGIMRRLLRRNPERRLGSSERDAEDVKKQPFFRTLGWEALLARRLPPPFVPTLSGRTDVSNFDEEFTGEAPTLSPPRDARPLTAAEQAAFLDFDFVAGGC
T4 sequence (P78362 whole entry): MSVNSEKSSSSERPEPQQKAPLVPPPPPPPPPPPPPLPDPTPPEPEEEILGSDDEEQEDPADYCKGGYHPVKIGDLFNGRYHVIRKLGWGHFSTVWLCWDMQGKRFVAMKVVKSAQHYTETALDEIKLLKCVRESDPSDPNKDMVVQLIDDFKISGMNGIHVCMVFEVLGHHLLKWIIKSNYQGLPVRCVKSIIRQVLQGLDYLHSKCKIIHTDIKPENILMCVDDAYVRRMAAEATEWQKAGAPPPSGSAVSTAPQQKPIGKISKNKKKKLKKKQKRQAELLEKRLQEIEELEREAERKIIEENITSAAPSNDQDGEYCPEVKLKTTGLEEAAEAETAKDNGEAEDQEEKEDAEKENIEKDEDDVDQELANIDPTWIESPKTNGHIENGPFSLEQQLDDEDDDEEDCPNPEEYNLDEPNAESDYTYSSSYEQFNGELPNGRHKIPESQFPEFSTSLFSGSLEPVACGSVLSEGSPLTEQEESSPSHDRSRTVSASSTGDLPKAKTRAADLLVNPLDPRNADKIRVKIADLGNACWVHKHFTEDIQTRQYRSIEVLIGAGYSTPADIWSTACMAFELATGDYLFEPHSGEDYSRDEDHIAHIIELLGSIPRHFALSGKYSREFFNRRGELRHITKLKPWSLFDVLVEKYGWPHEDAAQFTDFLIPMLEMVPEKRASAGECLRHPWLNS
T14 sequence (P29320 21-983): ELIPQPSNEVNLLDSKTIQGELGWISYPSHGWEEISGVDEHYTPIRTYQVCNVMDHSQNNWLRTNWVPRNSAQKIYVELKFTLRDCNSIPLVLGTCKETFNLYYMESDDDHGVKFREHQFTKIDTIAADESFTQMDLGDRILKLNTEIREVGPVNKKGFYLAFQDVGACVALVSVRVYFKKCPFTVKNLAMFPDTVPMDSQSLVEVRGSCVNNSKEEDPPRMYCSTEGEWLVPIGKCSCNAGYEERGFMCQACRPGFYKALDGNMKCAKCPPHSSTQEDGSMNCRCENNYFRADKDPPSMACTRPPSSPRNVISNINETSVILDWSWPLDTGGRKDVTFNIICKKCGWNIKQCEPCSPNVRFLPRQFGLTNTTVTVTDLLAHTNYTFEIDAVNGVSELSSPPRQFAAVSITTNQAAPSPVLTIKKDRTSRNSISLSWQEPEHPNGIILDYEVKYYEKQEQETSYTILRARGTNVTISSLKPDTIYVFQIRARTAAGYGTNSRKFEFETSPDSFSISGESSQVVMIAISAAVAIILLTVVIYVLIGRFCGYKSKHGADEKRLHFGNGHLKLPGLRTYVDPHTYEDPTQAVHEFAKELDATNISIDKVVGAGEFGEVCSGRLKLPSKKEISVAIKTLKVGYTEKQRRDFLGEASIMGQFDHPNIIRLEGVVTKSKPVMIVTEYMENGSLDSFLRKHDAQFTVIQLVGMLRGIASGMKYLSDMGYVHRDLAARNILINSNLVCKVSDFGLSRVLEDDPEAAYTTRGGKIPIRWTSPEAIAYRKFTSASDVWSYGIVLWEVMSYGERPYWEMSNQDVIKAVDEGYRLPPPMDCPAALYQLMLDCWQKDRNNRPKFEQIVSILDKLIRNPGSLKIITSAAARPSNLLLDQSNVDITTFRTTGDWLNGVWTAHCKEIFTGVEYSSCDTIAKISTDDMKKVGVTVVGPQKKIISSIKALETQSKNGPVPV
T19 sequence (Q8TD19 whole entry): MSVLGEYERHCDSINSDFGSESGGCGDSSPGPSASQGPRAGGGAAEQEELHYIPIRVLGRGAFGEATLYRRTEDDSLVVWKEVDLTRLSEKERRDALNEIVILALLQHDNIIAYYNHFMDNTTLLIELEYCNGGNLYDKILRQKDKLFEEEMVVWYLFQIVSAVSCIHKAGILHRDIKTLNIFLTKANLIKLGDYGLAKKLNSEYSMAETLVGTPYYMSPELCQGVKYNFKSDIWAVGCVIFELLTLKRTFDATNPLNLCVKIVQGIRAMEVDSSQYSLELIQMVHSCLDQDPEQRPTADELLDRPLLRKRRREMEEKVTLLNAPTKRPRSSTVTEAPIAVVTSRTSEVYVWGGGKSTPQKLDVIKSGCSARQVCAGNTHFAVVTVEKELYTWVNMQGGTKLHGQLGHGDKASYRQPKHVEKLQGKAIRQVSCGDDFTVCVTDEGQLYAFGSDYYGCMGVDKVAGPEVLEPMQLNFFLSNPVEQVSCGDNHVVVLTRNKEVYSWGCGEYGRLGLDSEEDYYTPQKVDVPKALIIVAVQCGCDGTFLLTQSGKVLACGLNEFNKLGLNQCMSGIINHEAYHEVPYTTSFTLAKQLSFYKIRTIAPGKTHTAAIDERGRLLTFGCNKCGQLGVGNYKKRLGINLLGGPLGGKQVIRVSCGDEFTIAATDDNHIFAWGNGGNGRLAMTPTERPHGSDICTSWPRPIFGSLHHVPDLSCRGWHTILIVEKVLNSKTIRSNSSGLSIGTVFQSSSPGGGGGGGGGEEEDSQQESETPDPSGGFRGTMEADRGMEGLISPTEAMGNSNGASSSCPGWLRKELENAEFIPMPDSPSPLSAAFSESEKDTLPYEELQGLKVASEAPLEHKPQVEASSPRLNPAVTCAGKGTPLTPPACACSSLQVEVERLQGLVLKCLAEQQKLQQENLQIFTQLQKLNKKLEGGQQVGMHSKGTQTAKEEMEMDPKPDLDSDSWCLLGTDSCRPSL
T8 sequence (Q9Y572 whole entry): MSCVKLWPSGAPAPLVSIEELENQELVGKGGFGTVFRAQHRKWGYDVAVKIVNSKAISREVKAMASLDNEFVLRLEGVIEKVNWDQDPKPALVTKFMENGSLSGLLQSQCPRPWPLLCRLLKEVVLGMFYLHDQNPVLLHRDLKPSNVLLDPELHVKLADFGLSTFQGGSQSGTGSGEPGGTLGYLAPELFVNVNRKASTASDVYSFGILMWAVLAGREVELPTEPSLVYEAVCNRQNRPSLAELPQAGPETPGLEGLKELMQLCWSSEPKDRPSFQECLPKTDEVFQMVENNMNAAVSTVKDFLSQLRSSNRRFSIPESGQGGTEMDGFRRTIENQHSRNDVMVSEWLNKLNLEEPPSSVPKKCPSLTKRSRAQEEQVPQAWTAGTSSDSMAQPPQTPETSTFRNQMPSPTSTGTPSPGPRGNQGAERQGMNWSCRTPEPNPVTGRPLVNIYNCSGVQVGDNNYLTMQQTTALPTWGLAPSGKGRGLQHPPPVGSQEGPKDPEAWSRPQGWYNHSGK
T11 sequence (Q06418 41-890): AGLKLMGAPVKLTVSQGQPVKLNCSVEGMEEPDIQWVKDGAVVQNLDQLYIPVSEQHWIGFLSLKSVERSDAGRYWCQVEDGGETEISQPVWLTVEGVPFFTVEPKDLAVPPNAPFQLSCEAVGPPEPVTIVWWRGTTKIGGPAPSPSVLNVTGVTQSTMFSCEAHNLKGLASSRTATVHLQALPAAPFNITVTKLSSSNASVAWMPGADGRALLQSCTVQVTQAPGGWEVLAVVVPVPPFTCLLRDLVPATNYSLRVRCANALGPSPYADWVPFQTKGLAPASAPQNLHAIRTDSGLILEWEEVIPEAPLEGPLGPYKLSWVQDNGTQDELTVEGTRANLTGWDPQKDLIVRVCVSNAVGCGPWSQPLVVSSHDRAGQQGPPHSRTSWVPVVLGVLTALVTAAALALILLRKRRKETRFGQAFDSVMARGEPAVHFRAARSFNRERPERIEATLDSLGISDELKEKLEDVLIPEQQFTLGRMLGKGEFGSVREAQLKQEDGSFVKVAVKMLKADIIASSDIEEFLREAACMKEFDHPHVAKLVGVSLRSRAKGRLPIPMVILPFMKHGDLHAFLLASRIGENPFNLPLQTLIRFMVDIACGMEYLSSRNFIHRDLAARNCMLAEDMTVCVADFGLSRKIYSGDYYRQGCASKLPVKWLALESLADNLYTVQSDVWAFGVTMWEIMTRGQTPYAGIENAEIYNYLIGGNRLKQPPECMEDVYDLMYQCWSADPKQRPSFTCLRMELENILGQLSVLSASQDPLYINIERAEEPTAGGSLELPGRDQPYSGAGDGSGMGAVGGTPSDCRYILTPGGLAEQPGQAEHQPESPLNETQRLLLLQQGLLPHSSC

## CC(=O)Nc1nc2ccc(-c3cnc(C)c(NC(=O)OC4CCCCC4)c3)cc2s1 [PK68, cyclohexyl (5-(2-acetamidobenzo[d]thiazol-6-yl)-2-methylpyridin-3-yl)carbamate]
TNIK
  pIC50: ~5.00
TRKA
  pIC50: ~5.00
RSK4; 1 μM
  Activity%: 103.68%
RSK4
  activity at 1 µM: 105%
PDGFRa; 1 μM
  Activity%: 83.70%
PDGFRa
  activity at 1 µM: 84.1%
DYRK4; 1 μM
  Activity%: 102.24%
DYRK4
  activity at 1 µM: 102%
SRPK2; 1 μM
  Activity%: 100.99%
SRPK2
  activity at 1 µM: 101%
NEK1; 1 μM
  Activity%: 95.75%
NEK1
  activity at 1 µM: 96%
MEKK6; 1 μM
  Activity%: 88.83%
MEKK6
  activity at 1 µM: 91.3%
CDK4/cyclin D3; 1 μM
  Activity%: 93.75%
CDK4/cyclin D3
  activity at 1 µM: 94.2%
RIPK3; 1 μM
  Activity%: 104.99%
RIPK3
  activity at 1 µM: 106%
CK1a1L; 1 μM
  Activity%: 103.24%
CK1a1L
  activity at 1 µM: 106%
ACK1; 1 μM
  Activity%: 84.41%
ACK1
  activity at 1 µM: 85.5%
TYRO3/SKY; 1 μM
  Activity%: 97.95%
TYRO3/SKY
  activity at 1 µM: 99.6%
CK2a; 1 μM
  Activity%: 90.49%
CK2a
  activity at 1 µM: 95.2%
JAK2; 1 μM
  Activity%: 96.04%
JAK2
  activity at 1 µM: 98.2%
EPHA3; 1 μM
  Activity%: 98.26%
EPHA3
  activity at 1 µM: 102%
FMS; 1 μM
  Activity%: 71.06%
FMS
  activity at 1 µM: 71.1%
ULK3; 1 μM
  Activity%: 92.16%
ULK3
  activity at 1 µM: 92.9%
PKN1/PRK1; 1 μM
  Activity%: 96.02%
PKN1/PRK1
  activity at 1 µM: 97.8%
TTBK2; 1 μM
  Activity%: 98.08%
TTBK2
  activity at 1 µM: 98.4%
NEK9; 1 μM
  Activity%: 90.50%
NEK9
  activity at 1 µM: 90.9%
